Experimental data published in PMC6934184, “Selective DNA-PKcs inhibition extends the therapeutic index of localized radiotherapy and chemotherapy” (The Journal of Clinical Investigation, 2019).

Target: T1, PRKCB1 (PKC beta I) (Homo sapiens, UniProt P05771)
T1 construct: purchased Thermo Fisher Scientific (Life Technologies) SelectScreen
Experiment: SelectScreen Z'LYTE
Assay type: biochemical
Outline: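 SelectScreen broad panel; activity (Z'LYTE, Adapta) plus binding formats. ATP: Km app for CSF1R Z'LYTE; 10 for CAMK1 Adapta. Readout = % per kinase.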

T1 sequence (P05771 whole entry): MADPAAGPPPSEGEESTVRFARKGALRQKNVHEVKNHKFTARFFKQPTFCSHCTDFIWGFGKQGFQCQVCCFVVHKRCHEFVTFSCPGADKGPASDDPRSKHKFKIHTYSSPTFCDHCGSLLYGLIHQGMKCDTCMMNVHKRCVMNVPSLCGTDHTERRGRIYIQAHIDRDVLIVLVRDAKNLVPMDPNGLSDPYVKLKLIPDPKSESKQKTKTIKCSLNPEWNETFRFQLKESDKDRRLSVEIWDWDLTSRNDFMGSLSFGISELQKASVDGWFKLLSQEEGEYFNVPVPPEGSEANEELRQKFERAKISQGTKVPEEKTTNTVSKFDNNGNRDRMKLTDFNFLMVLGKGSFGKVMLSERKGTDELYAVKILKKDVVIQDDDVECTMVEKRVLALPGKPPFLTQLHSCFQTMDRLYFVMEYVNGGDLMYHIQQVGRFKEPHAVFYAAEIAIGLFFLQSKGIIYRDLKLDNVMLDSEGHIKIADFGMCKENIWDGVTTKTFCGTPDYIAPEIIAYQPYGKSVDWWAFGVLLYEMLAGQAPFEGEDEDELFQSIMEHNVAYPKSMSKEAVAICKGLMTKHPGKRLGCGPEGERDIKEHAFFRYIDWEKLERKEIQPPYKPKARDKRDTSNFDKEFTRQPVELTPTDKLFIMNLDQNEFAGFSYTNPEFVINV

Structure (SMILES): CN(C(=O)CN1CCOCC1)c1ccc2sc3c(-c4cccc5c(=O)cc(N6CC7CCC(C6)O7)oc45)cccc3c2c1 [NU5455]
- inhibition at 1 µM: -0.7%
